Experimental findings from US9765101B2, “Organo-arsenoxide compounds and use thereof” (NewSouth Innovations Pty Limited, priority 2006, dated 2017) are described below.

The subject of one data set is BAE cells. Nature of the data set: Accumulation of arsenical in BAE cells (cytosolic arsenic by inductively coupled plasma spectrometry). The format is cell-based, bovine. To be noted: 50 μM.
Data set [1] deals with MEF3.8 cells over-expressing MRP6. The note with it: MEF/MRP6; 96 h; relative to IC50 of non-transfected parental cells. As for the experimental part: (§1) Transfectants of the Madin-Darby canine kidney II (MDCKII) polarised epithelial cell line, over-expressing multidrug resistance-associated proteins (MRP) 1, 2 or 3, have been described (Evers et al., 2000; Kool et al., 1999), as have the MEF/MDR1 clone H4 over-expressing human MDR1 or BCRP (Dilda et al., 2005b). Cells were grown and maintained as adherent monolayers in DMEM containing 10% calf serum (Cosmic™, Hyclone, Tauranga, New Zealand), 100 μg·mL^−1 penicillin and 60 μg·mL^−1 streptomycin. Cytotoxicity assays were performed as described previously (Allen et al., 1999).
(§2) Mammalian cells over-expressing MRP1, 2, 3 or 6, or MDR1 or BCRP were tested for resistance to (S)-Penicillamine-arsenoxide. MRP1, MRP2 or MRP3 was over-expressed in the canine kidney epithelial MDCKII cell line, while MRP6, MDR1 or BCRP was over-expressed in the murine embryo fibroblast MEF3.8 line. Cells were exposed to the indicated concentrations of (S)-Penicillamine-arsenoxide for 96 h and the number of viable cells measured and expressed relative to the number of untreated cells. Resistance factor is calculated relative to the (S)-Penicillamine arsenoxide IC50 for proliferation arrest of non-transfected parental cells.

Data set [2] relates to MEF3.8 cells over-expressing MDR1. The note with it: MEF/MDR1; 96 h; relative to IC50 of non-transfected parental cells. Here is the method: as §1, §2
Data set [3] has as its system MDCKII cells over-expressing MRP2. The note with it: MD/MRP2; 96 h; relative to IC50 of non-transfected parental cells. As for the experimental part:
as §1, §2

Data set [4] deals with MEF3.8 cells over-expressing BCRP. The note with it: MEF/BCRP; 96 h; relative to IC50 of non-transfected parental cells. Here is the method:
as §1, §2

Data set [5] concerns MDCKII cells over-expressing MRP1. The note with it: MD/MRP1; 96 h; relative to IC50 of non-transfected parental cells. As for the experimental part: as §1, §2
Data set [6] relates to MDCKII cells over-expressing MRP3. The note with it: MD/MRP3; 96 h; relative to IC50 of non-transfected parental cells. As for the experimental part:
as §1, §2

A further data set concerns MRP1/2. The data set can be described thus: Effect of MRP1/2 inhibitors 4H10 and MK-571 on accumulation and anti-proliferative activity in BAE cells.
The test system of data set [7] is PANC-1 cells (pancreatic carcinoma). The data set can be described thus: PANC-1 cell proliferation assay (MTT, 72 h). In kind it is cell-based. To be noted: PANC-1, human pancreatic carcinoma; read-out: IC50 for proliferation arrest. Here is the method:
(§3) BAE cells were from Cell Applications, San Diego, Calif. and BxPC-3, HT1080, LLC, PANC-1, MCF-7, HCT116 and K562 cells were from ATCC, Bethesda, Md. NB4 and MDCK2 cells were from Shane Supple (Kanematsu Laboratories, Royal Prince Alfred Hospital, Sydney, Australia) and P. Borst (The Netherlands Cancer Institute, Amsterdam, The Netherlands). BAE, HT1080, Panc-1, MCF-7, HCT116, MDCK2 and LLC cells were cultured in DMEM. NB4, K562 and BxPC-3 cells were cultured in RPMI medium. The cells were supplemented with 10% foetal calf serum (FBS), 2 mM L-glutamine, and 1 U·mL-1 penicillin/streptomycin. Cell culture plasticware was from Techno Plastic Products (Trasadingen, Switzerland). All other cell culture reagents were from Gibco (Gaithersburg, Md.).
(§4) Adherent cells were allowed to adhere overnight.

Data set [8] relates to MCF-7 cells (mammary carcinoma). The data set can be described thus: MCF-7 cell proliferation assay (MTT, 72 h). The format is cell-based. To be noted: MCF-7, human mammary carcinoma; read-out: IC50 for proliferation arrest. As for the experimental part:
as §3, §4

Protocol for MRP1/2: The data points and error bars are the mean±SD of quadruplicate determinations and is representative of two experiments. […] The MRP inhibitors were incubated for 30 min with the cells prior to incubation with (S)-Penicillamine-arsenoxide for 72 h. The data points and error bars are the mean±SD of triplicate determinations. *** is p<0.001, ** is p<0.01
BAE, NB4, K562, MDCK2, HT1080, LLC, HCT116, Panc-1, MCF-7 and BxPC-3 cells were seeded at a density of 1.5×10^3, 3×10^3, 4×10^3, 5×10^2, 2×10^3, 5×10^2, 5×10^2, 6×10^3, 6×10^3 and 1×10^4 cells per well, respectively, into 96-well plates. Adherent cells were allowed to adhere overnight. They were then cultured for 72 h in medium containing 10% fetal calf serum and (S)-Penicillamine-arsenoxide. Viable cells were determined by incubating cells with the tetrazolium salt MTT (Sigma, St. Louis, Mo.), which is metabolized by viable cells to form insoluble purple formazan crystals. DMSO was added to lyse cells, the contents of the wells were homogenized and the absorbance measured at 550 nm. Cell number in the untreated control was normalized as 100%, and viable cell number for all treatments was expressed as percentage of control. The cytotoxic effects of (S)-Penicillamine-arsenoxide were assayed by flow cytometry with propidium iodide. BAE cells were seeded at a density of 5×10^4 cells per well into 12-well plates, allowed to adhere overnight, then treated for 48 h with GSAO. […] The combined cells were pelleted, resuspended in 0.5 mL serum-free medium containing 1 μg·mL^−1 propidium iodide (Molecular Probes, Eugene, Oreg.) and analysed by flow cytometry.
BAE cells were seeded at a density of 1.5×10^6 cells in Petri dishes and allowed to adhere overnight. Cells were incubated with 50 μM (S)-Penicillamine-arsenoxide at discrete times for up to 2 h at 37° C. and then washed three times with ice-cold PBS. The washed cells were lysed in 1 mL of 70% w/w nitric acid. […] Samples were diluted 10-fold and analysed for arsenic atoms using an Elan 6100 Inductively Coupled Plasma Spectrometer (Perkin Elmer Sciex Instruments, Shelton, Conn.).

For `CC(C)(SCC(=O)Nc1ccc([As](O)O)cc1)[C@@H](N)C(=O)O` [(S)-Penicillamine-arsenoxide, 4-(N—(S-penicillaminylacetyl)amino)phenylarsinous acid], the “initial rate of accumulation” value in the data set on BAE cells is listed as 69 pmol per 10^6 cells per min. In addition, the “Resistance Factor” value in data set [1] is 1.3; in data set [2], 1.2; in [3], 4.6; in data set [4] it was 1.1; in data set [5], 3.7; in data set [6], 0.8. For the same compound, the “substrate status for MRP1/2” value with MRP1/2 is “substrate for MRP1/2”. For the same compound, in the data set on MRP1/2 (0.3 μM compound, 4H10 2 μM or MK-571 15 μM, 72 h), the “anti-proliferative effect in presence of MRP1/2 inhibitors” value was “more potent anti-proliferative effect”. Further, the “accumulation in presence of MRP1/2 inhibitors 4H10 and MK-571” value in the data set with MRP1/2 (50 μM compound, 4H10 5 μM or MK-571 25 μM) is “More (S)-Penicillamine-arsenoxide accumulated in BAE cells”. For the same compound, the IC50 in [7] came out at 6.5 µM; in [8], 9 µM.
